Measured values as given in publication PMC12030568, “Binding Affinity of Synthetic Cannabinoids to Human Serum Albumin: Site Characterization and Interaction Insights” (Pharmaceuticals, 2025).
Entries after “also recorded” stand apart in the source; their conditions may differ.

How the values were obtained:
[1] = biological target: human serum albumin (HSA) (Homo sapiens, UniProt P02768); assay: HPAC zonal elution on CHIRALPAK HSA column, bound fraction determination; settings: for Bound Fraction (%b) / Retention factor (k): values at 100% aqueous buffer, extrapolated from log k vs % ACN (11-16%), 67 mM potassium phosphate buffer pH 7.0, 25 °C; for experimental %b to HSA (controls): ACN in mobile phase ranging from 2% to 20%
Chain of human serum albumin (HSA) (P02768 25-609): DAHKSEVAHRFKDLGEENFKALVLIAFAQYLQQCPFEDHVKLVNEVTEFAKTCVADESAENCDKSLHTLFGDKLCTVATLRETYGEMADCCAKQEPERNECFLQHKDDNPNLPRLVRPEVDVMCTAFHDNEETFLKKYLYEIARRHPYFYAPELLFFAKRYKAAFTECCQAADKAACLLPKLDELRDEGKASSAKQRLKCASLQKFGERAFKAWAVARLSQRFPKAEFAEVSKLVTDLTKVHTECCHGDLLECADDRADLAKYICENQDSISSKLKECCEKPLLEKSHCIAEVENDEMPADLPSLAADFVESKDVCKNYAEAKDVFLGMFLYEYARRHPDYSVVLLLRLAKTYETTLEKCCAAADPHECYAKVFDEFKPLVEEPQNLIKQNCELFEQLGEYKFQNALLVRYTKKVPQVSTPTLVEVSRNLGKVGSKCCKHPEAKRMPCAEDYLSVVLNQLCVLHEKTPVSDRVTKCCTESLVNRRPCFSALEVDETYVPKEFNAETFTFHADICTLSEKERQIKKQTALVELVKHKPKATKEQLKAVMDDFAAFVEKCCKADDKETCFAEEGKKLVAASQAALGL
Description: Binding affinity studies were conducted using a series of commercially available synthetic cannabinoids (Figure 1). […] The binding affinity of the synthetic cannabinoids to HSA was measured based on previously established methods using HPAC [15, 35, 36]. […] The analyses were performed using zonal elution in reversed-phase mode. A potassium phosphate buffer solution (67 mM, pH 7.0) was selected as the mobile phase due to HSA’s stability in phosphate buffers, and to closely mimic physiological conditions. Several studies describe the use of this buffer in protein binding studies mimicking the physiological conditions of human plasma.
ACN was chosen for the HSA studies, as it is one of the most commonly used organic modifiers in HSA columns. However, a low percentage of the organic modifier was necessary to prevent protein denaturation and prolong the column’s lifespan. Additionally, the presence of an organic modifier must be carefully considered, as it can alter the number of available binding sites by affecting the spatial conformation of the protein [41].
To calculate the bound fraction (%b) to HSA, different proportions of organic modifier were added to the mobile phase, ranging from 11% to 15%. In the Supplementary Materials (Figures S1–S6), representative chromatograms for each synthetic cannabinoid are shown, as examples. […] All analyses were performed in triplicate. […] To determine the %b values in a 100% aqueous buffer, an extrapolation was performed by plotting the logarithm of the retention factor (log k) against the percentage of the organic modifier (Figure S7, Supplementary Materials).
To determine the experimental %b values for these controls, different proportions of ACN were added to the mobile phase, ranging from 2% to 20%.
The sample injections (10 µL) were carried out in triplicate, and the flow rate was set to 0.5 mL/min.
(§1) The analyses were performed in reversed-phase mode using as mobile phases mixtures of 67 mM potassium phosphate buffer solution (pH 7.0) with different proportions of ACN. […] All chromatographic analyses were performed at 25 ± 2 °C, under isocratic mode, with UV detection at 220, 254, and 300 nm. All mobile phases were prepared in a volume/volume ratio (v/v), filtered through polyamide membrane filters of 0.2 µm pore size from Whatman® GmbH (Dassel, Germany), and degassed in an ultrasonic bath (Soltec® Sonica® Ultrasonic cleaner) for at least 15 min before use.
Zonal analysis was the approach selected for the development of this work. The retention of the analyte is directly related to its interaction with the immobilized HSA, and can be described with Equation (1).(1) k=(KA1n1+…+KAnnn)mL/VM
The retention factor (k) is related to the number of binding sites and to their corresponding equilibrium constants (KA). VM represents the void volume and mL the total moles of the analyte binding sites. Equation (2) was used to calculate the retention factor [58].(2) k=tr−t0/t0
tr corresponds to the retention time of the analyte and t0 to the dead time. The t0 was taken from each individual run and was considered to be equal to the solvent front.
One application of zonal elution in HPAC is to measure the binding affinity of a drug to an immobilized protein.

HSA site I = biological target: T1, HSA site I (Homo sapiens, UniProt P02768); assay: Zonal displacement chromatography on HSA column with warfarin (site I probe); type: binding; settings: competitor warfarin 5-20 µM in mobile phase; 13% ACN; plot of 1/k vs competitor concentration
T1 construct: catalogue number not given
T1 sequence (P02768 25-609): as above
Description: (§2) To gain deeper insights into HSA binding, displacement studies were conducted to further investigate the binding sites of the synthetic cannabinoids on this protein. […] These competitors are commonly used in displacement studies to elucidate binding interactions at specific HSA sites.
(§3) Various concentrations of the competitors were added to the mobile phase, based on previous studies.
(§4) The chromatographic data are plotted as 1/k versus the competitor concentration.
as §1
(§5) Stock solutions of all synthetic cannabinoids were prepared in EtOH at the concentration of 0.2 mg/mL and further diluted with the mobile phase, the potassium phosphate buffer (67 mM, pH 7.0), to a final concentration of 50 μg/mL. All working solutions were filtered through a membrane of 0.45 µm pore size and vortexed for at least 30 s before injection. […] All solutions were stored at 4 °C. […] These concentrations were selected based on previous displacement studies. An aqueous buffer of a 67 mM solution of potassium phosphate was prepared by adjusting the pH to 7.0 with a solution of saturated NaOH. The aqueous buffer pH was controlled with a Crison® BasiC 20 pH meter.
(§6) Equation (5) can be used to describe the impact of the competitor (I) on the retention time of each analyte (A) [32, 58](5) 1/k=VMKI[I]/KAmL+VM/KAmL where KI is the association equilibrium constant of I at the binding site of competition with A, [I] is the concentration of the competitor in the mobile phase, and KA is the association equilibrium constant of A at the binding site of competition with I.
(§7) If a direct competition between the analyte and the competing agent occurs, a straight line with a positive slope is observed in the plot of 1/k versus [I]; if allosteric competition between the analyte and the competing agent occurs, a straight line with a negative slope is observed in the plot of 1/k versus [I]; and if random variations are observed, no competition between the analyte and the competing agent occurs.

HSA site II = biological target: T2, HSA site II (Homo sapiens, UniProt P02768); assay: Zonal displacement chromatography on HSA column with (S)-ibuprofen and L-tryptophan (site II probes); type: binding; settings: 13% ACN; for Interaction with (S)-ibuprofen on HSA: competitor (S)-ibuprofen 5-20 µM in mobile phase, negative slope of 1/k vs concentration; for Binding profile at HSA Site II: competitor L-tryptophan 5-20 µM in mobile phase, plot of 1/k vs competitor concentration
T2 construct: catalogue number not given
T2 sequence (P02768 25-609): as above
Description: as §2, §3, §4, §1, §5, §6, §7

HSA [2] = settings: cited from earlier work
[3] = parameters: method as in PMID 26810883; settings: ultrafiltration and LC-MS; cited from earlier work
HSA [4] = settings: cited from earlier work; remark: listed apart in the source

## CC(C)[C@H](NC(=O)c1nn(CC2CCCCC2)c2ccccc12)C(N)=O
[1]
  Bound Fraction (%b): 99.7%
  Retention factor (k): 294.40
HSA site I
  Binding profile at HSA Site I: bind to both site I and site II of HSA; also recorded: Binding occurs (competition with warfarin)
HSA site II
  Interaction with (S)-ibuprofen on HSA: exhibits allosteric interactions with (S)-ibuprofen; also recorded: Allosterically interacts with (S)-ibuprofen
  Binding profile at HSA Site II: bind to both site I and site II of HSA; also recorded: Binding occurs (competition with L-tryptophan)

## COC(=O)[C@@H](NC(=O)c1nn(CCCCCF)c2ccccc12)C(C)C [5F-AMB]
[1]
  Bound Fraction (%b): 98.9%
  Retention factor (k): 87.30
HSA site I
  Binding profile at HSA Site I: compete with warfarin for site I; also recorded: Binding occurs (competition with warfarin)
HSA site II
  Interaction with (S)-ibuprofen on HSA: interact allosterically with (S)-ibuprofen; also recorded: Allosterically interacts with (S)-ibuprofen
  Binding profile at HSA Site II: do not compete with L-tryptophan; also recorded: Binding does not occur (no competition with L-tryptophan)

## CCCCCn1nc(C(=O)N[C@H](C(N)=O)C(C)C)c2ccccc21 [AB-PINACA]
[1]
  Bound Fraction (%b): 98.7%
  Retention factor (k): 79.11
HSA site I
  Binding profile at HSA Site I: compete with warfarin for site I; also recorded: Binding occurs (competition with warfarin)
HSA site II
  Interaction with (S)-ibuprofen on HSA: interact allosterically with (S)-ibuprofen; also recorded: Allosterically interacts with (S)-ibuprofen
  Binding profile at HSA Site II: do not compete with L-tryptophan; also recorded: Binding does not occur (no competition with L-tryptophan)

## CC(C)(C)[C@H](NC(=O)c1nn(Cc2ccc(F)cc2)c2ccccc12)C(N)=O [ADB-FUBINACA]
[1]
  Bound Fraction (%b): 99.8%
  Retention factor (k): 619.87
HSA site I
  Binding profile at HSA Site I: neither site I nor site II is its primary binding site in HSA; also recorded: Binding does not occur (no competition with warfarin)
HSA site II
  Interaction with (S)-ibuprofen on HSA: Allosterically interacts with (S)-ibuprofen
  Binding profile at HSA Site II: neither site I nor site II is its primary binding site in HSA; also recorded: Binding does not occur (no competition with L-tryptophan)

## COC(=O)[C@@H](NC(=O)c1nn(Cc2ccc(F)cc2)c2ccccc12)C(C)C [AMB-FUBINACA]
[1]
  Bound Fraction (%b): 99.7%
  Retention factor (k): 326.38
HSA site I
  Binding profile at HSA Site I: compete with warfarin for site I; also recorded: Binding occurs (competition with warfarin)
HSA site II
  Interaction with (S)-ibuprofen on HSA: interact allosterically with (S)-ibuprofen; also recorded: Allosterically interacts with (S)-ibuprofen
  Binding profile at HSA Site II: do not compete with L-tryptophan; also recorded: Binding does not occur (no competition with L-tryptophan)

## O=C(c1cccc2ccccc12)c1nc2ccccc2n1CCCCCF [FUBIMINA]
[1]
  Bound Fraction (%b): 99.9%
  Retention factor (k): 968.23

## N[C@@H](Cc1c[nH]c2ccccc12)C(=O)O [L-Tryptophan, L-tryptophan]
HSA [2]
  Affinity constant of competitor for HSA (Lit.): KI L-Tryptophan (M^−1) (Lit. 4.4 × 10^4 M^−1) [55]

## Cc1c(C(=O)c2cccc3ccccc23)c2cccc3c2n1[C@H](CN1CCOCC1)CO3 [WIN 55,212-2]
[3]
  plasma protein binding: 95%

## CC(=O)CC(c1ccccc1)c1c(O)c2ccccc2oc1=O (centres unmarked) [Warfarin, warfarin]
HSA [2]
  Affinity constant of competitor for HSA (Lit.): KI Warfarin (M^−1) (Lit. 3.3 × 10^5 M^−1) [55]

## CN(C)CCCN1c2ccccc2Sc2ccc(Cl)cc21 [chlorpromazine, reference compound]
[1]
  experimental %b to HSA (controls): 82.12%
HSA [4]
  reported %b to HSA: > 90%

## COc1ccc2c(c1)c(CC(=O)O)c(C)n2C(=O)c1ccc(Cl)cc1 [indomethacin]
HSA [4]
  reported %b to HSA: 97.8%

## Cc1ncc([N+](=O)[O-])n1CCO [metronidazole, reference compound]
[1]
  experimental %b to HSA (controls): 19.78%
HSA [4]
  reported %b to HSA: 20%
